Experimental data reported in patent US9546164B2 (GENENTECH, INC., priority 2013, dated 2017).
Counter-ions that a name gives are not always drawn. Like-named read-outs stand apart in the source and are kept apart here.

Molecular target: hNav1.7 (Homo sapiens (Human), UniProt Q15858)
Test: Tritiated sulfonamide competitive binding to membranes from cells expressing hNav1.7 and the β1 subunit;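 also: Filter-bound radioactivity counted by liquid scintillation, nonspecific binding defined with excess unlabelled ligand, IC50 fitted to percent inhibition of specific binding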
[1] = read-out: Ligand Binding Assay, 100 pM [3H]compound, membranes with hNav1.7 and β1 subunit, 18 h, room temperature

hNav1.7, sequence (Q15858 other isoform, or with tags, fused parts or gaps): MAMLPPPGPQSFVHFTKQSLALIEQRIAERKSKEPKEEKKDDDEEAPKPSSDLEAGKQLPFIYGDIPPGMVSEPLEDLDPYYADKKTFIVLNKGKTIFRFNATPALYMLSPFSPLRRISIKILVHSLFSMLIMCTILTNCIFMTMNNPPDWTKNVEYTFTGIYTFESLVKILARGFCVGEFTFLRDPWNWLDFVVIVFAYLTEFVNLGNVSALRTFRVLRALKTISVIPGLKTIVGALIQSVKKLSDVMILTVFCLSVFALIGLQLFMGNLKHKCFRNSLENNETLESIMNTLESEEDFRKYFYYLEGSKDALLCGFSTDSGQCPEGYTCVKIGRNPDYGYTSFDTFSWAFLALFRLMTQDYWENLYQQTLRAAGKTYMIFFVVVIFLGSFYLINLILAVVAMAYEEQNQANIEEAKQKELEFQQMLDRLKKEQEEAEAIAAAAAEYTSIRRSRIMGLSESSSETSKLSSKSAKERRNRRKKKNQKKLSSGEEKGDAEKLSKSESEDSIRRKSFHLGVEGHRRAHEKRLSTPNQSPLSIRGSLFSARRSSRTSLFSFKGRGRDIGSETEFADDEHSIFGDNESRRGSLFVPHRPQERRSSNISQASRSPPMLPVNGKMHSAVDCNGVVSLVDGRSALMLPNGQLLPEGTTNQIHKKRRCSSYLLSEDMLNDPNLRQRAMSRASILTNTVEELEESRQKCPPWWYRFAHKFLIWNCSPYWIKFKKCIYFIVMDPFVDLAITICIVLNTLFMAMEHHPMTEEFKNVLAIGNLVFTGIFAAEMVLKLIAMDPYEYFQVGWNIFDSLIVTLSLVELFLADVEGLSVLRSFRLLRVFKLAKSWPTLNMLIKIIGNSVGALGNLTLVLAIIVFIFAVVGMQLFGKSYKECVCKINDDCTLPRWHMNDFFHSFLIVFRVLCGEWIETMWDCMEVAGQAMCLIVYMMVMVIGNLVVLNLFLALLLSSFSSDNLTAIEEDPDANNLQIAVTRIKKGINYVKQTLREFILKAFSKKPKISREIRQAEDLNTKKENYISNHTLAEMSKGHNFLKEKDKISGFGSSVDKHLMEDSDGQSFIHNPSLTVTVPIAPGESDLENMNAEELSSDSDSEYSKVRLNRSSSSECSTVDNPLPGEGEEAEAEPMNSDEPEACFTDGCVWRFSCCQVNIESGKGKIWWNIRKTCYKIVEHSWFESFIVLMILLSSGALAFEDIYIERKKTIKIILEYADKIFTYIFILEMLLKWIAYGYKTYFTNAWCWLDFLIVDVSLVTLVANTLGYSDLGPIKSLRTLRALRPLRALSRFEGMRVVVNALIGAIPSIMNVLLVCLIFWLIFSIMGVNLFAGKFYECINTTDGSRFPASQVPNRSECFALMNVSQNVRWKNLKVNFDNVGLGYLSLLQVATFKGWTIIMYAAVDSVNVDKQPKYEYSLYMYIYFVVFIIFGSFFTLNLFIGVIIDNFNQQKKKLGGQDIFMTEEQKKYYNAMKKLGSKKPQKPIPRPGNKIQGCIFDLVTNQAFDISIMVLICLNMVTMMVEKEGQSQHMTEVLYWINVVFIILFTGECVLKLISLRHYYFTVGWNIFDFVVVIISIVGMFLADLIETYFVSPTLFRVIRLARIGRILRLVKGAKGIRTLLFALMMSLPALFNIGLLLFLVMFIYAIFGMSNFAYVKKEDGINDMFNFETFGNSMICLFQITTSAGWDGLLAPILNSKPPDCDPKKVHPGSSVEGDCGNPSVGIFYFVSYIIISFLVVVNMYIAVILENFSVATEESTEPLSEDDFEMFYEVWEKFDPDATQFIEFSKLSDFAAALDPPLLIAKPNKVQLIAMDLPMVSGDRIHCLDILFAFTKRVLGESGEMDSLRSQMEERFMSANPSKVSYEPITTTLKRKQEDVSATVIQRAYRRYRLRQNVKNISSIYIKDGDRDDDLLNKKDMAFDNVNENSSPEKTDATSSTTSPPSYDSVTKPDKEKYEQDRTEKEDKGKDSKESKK
hNav1.7, sequence (Q07699 19-218 partner): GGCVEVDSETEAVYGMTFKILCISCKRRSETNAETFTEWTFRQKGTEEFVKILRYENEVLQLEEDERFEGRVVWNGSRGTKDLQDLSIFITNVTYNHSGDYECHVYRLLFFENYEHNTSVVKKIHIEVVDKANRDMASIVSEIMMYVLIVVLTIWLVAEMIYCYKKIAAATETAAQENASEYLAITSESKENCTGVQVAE

Row | SMILES | IC50 [1] | IC50
1 | CS(=O)(=O)NC(=O)c1cc(C2CC2)c(OCC2CN([C@@H](c3ccccc3)c3ccccn3)C2)cc1F [Example 118, (S)-5-Cyclopropyl-2-fluoro-N-(methylsulfonyl)-4-((1-(phenyl(pyridin-2-yl)methyl)azetidin-3-yl)methoxy)benzamide] | 417 nM | –
2 | C[C@H](c1cc(Cl)cc(Cl)c1)N1CCN(Cc2cc(F)c(C(=O)NS(C)(=O)=O)cc2C2CC2)C[C@@H]1C [Example 565, 5-cyclopropyl-4-(((S)-4-((R)-1-(3,5-dichlorophenyl)ethyl)-3-methylpiperazin-1-yl)methyl)-2-fluoro-N-(methylsulfonyl)benzamide] | – | 4.1 nM
3 | CS(=O)(=O)NC(=O)c1cc(C2CC2)c(O[C@@H]2CCCN(Cc3ccc(F)cc3)C2)cc1F [Example 20, (R)-5-cyclopropyl-2-fluoro-4-((1-(4-fluorobenzyl)piperidin-3-yl)oxy)-N-(methlysulfonyl)benzamide] | – | 30.9 nM
4 | CS(=O)(=O)NC(=O)c1cc(C2CC2)c(OCC2CN(Cc3ccc(C(F)(F)F)c(F)c3)C2)cc1F [Example 76, 5-cyclopropyl-2-fluoro-4-((1-(3-fluoro-4-(trifluoromethyl)benzyl)azetidin-3-yl)methoxy)-N-(methylsulfonyl)benzamide] | 42 nM | –
5 | CS(=O)(=O)NC(=O)c1cc(C2CC2)c(CN2CCO[C@@H](Cc3ccc(Cl)c(Cl)c3)C2)cc1F [Example 461, (S)-5-cyclopropyl-4-((2-(3,4-dichlorobenzyl)morpholino)methyl)-2-fluoro-N-(methylsulfonyl)benzamide] | 42.1 nM | –
6 | CC(C)Oc1ncc([C@H](c2ccccc2)N2CC(COc3cc(F)c(C(=O)NS(C)(=O)=O)cc3C3CC3)C2)cc1Cl [Example 114, (S)-4-((1-((5-Chloro-6-isopropoxypyridin-3-yl)(phenyl)methyl)azetidin-3-yl)methoxy)-5-cyclopropyl-2-fluoro-N-(methylsulfonyl)benzamide] | 7.27 nM | –
7 | O=C(NS(=O)(=O)C1CC1)c1cc(Cl)c(OCC2CCN(Cc3cc(Cl)cc(OC(F)(F)F)c3)CC2)cc1F [Example 407, 5-chloro-4-((1-(3-chloro-5-(trifluoromethoxy)benzyl)piperidin-4-yl)methoxy)-N-(cyclopropylsulfonyl)-2-fluorobenzamide, trifluoroacetic acid salt] | 6.7 nM | –
8 | C[C@@H](c1cc(Cl)cc(Cl)c1)N1CCC(COc2cc(F)c(C(=O)NS(=O)(=O)N3CCC3)cc2C2CC2)CC1 (single isomer, unassigned) [Example 272] | 4.2 nM | –
9 | C[C@H](c1ccc(Cl)c(Cl)c1)N1CCC(C)(COc2cc(F)c(C(=O)NS(C)(=O)=O)cc2C2CC2)CC1 (single isomer, unassigned) [Example 218] | 7.8 nM | –
10 | CS(=O)(=O)NC(=O)c1cc(C2CC2)c(OCC2CCN(Cc3ccccc3F)CC2)cc1F [Example 127, 5-Cyclopropyl-2-fluoro-4-((1-(2-fluorobenzyl)piperidin-4-yl)methoxy)-N-(methylsulfonyl)benzamide] | 578 nM | –
11 | CS(=O)(=O)NC(=O)c1cc(C2CC2)c(O[C@@H]2CCCN(Cc3c(Cl)cccc3Cl)C2)cc1F [Example 10, (R)-5-cyclopropyl-4-((1-(2,6-dichlorobenzyl)piperidin-3-yl)oxy)-2-fluoro-N-(methylsulfonyl)benzamide] | – | 4.1 nM
12 | Cc1cc(F)ccc1S(=O)(=O)N1CCC(COc2cc(F)c(C(=O)NS(=O)(=O)C3CC3)cc2C2CC2)CC1 [Example 387, 5-cyclopropyl-N-(cyclopropylsulfonyl)-2-fluoro-4-((1-((4-fluoro-2-methylphenyl)sulfonyl)piperidin-4-yl)methoxy)benzamide] | 13.3 nM | –
13 | CS(=O)(=O)NC(=O)c1cc(C2CC2)c(OCC2CCN(Cc3cccc(F)c3)CC2)cc1F [Example 88, 4-((1-(3-Fluorobenzyl)piperidin-4-yl)methoxy)-5-cyclopropyl-2-fluoro-N-(methylsulfonyl)benzamide] | 92.8 nM | –
14 | CS(=O)(=O)NC(=O)c1cc(C2CC2)c(OCC2CCN([C@@H](CO)c3cc(Cl)cc(Cl)c3)CC2)cc1F [Example 266] | 91 nM | –
15 | CC(c1cc(Cl)cc(Cl)c1)N1CCN(Cc2cc(F)c(C(=O)NS(=O)(=O)C3CC3)cc2C2CC2)CC1 (centres unmarked) [Example 541, 5-cyclopropyl-N-(cyclopropylsulfonyl)-4-((4-(1-(3,5-dichlorophenyl)ethyl)piperazin-1-yl)methyl)-2-fluorobenzamide] | – | 5.9 nM
16 | C[C@H]1[C@@H](Oc2cc(F)c(C(=O)NS(C)(=O)=O)cc2C2CC2)CCCN1Cc1cc(Cl)cc(Cl)c1 [Example 330, 5-cyclopropyl-4-(((2S,3S)-1-(3,5-dichlorobenzyl)-2-methylpiperidin-3-yl)oxy)-2-fluoro-N-(methylsulfonyl)benzamide, trifluoroacetic acid salt] | 31.9 nM | –
17 | CS(=O)(=O)NC(=O)c1cc(C2CC2)c(OCC2CCN(CC(F)(F)F)CC2)cc1F [Example 116, 5-Cyclopropyl-2-fluoro-N-(methylsulfonyl)-4-((1-(2,2,2-trifluoroethyl)-piperidin-4-yl)methoxy)benzamide] | 77.5 nM | –
18 | O=C(NS(=O)(=O)C1CC1)c1cc(C2CC2)c(CN2CCO[C@H](Cc3ccc(F)cc3Cl)C2)cc1F [Example 467, (R)-4-((2-(2-chloro-4-fluorobenzyl)morpholino)methyl)-5-cyclopropyl-N-(cyclopropylsulfonyl)-2-fluorobenzamide, trifluoroacetic acid salt] | 4.3 nM | –
19 | CS(=O)(=O)NC(=O)c1cc(C2CC2)c(OCC2CCN([C@@H](c3cc(Cl)cc(Cl)c3)C(F)F)CC2)cc1F (single isomer, unassigned) [Example 224] | 4.5 nM | –
20 | CS(=O)(=O)NC(=O)c1cc(C2CC2)c(CN2CCC(Oc3cc(C(F)(F)F)cc(Cl)c3F)CC2)cc1F [Example 536, 4-((4-(3-Chloro-2-fluoro-5-(trifluoromethyl)phenoxy)piperidin-1-yl)methyl)-5-cyclopropyl-2-fluoro-N-(methylsulfonyl)benzamide, trifluoroacetic acid salt] | – | 5 nM
21 | C[C@@H](c1cc(Cl)cc(Cl)c1)N1CCC(F)(COc2cc(F)c(C(=O)NS(=O)(=O)C3CC3)cc2C2CC2)CC1 [Example 350] | 4.5 nM | –
22 | CS(=O)(=O)NC(=O)c1cc(C2CC2)c(OCC2CCN(Cc3ccc(F)cc3C(F)(F)F)CC2)cc1F [Example 586, 5-cyclopropyl-2-fluoro-4-((1-(4-fluoro-2-(trifluoromethyl)benzyl)piperidin-4-yl)methoxy)-N-(methylsulfonyl)benzamide] | 5.2 nM | –

More lines, in order of falling IC50 [1], values ahead:

Row | IC50 [1] | IC50 | SMILES
23 | 3.9 nM | – | CS(=O)(=O)NC(=O)c1cc(C2CC2)c(O[C@@H]2CCCN(Cc3cc(C(F)(F)F)cc(C4CC4)n3)C2)cc1F [Example 305, (R)-5-cyclopropyl-4-((1-((6-cyclopropyl-4-(trifluoromethyl)pyridin-2-yl)methyl)piperidin-3-yl)oxy)-2-fluoro-N-(methylsulfonyl)benzamide]
24 | 3.9 nM | – | CC1(COc2cc(F)c(C(=O)NS(C)(=O)=O)cc2C2CC2)CCN(Cc2cc(C(F)(F)F)cc(Cl)c2F)CC1 [Example 141, 4-((1-(3-chloro-2-fluoro-5-(trifluoromethyl)benzyl)-4-methylpiperidin-4-yl)methoxy)-5-cyclopropyl-2-fluoro-N-(methylsulfonyl)benzamide]
25 | 3.8 nM | – | O=C(NS(=O)(=O)C1CC1)c1cc(C2CC2)c(CN2CCC(Oc3cc(Cl)cc(Cl)c3)CC2)cc1F [Example 57, 5-cyclopropyl-N-(cyclopropylsulfonyl)-4-((4-(3,5-dichlorophenoxy)piperidin-1-yl)methyl)-2-fluorobenzamide, trifluoroacetic acid salt]
26 | 3.7 nM | – | O=C(NS(=O)(=O)C1CC1)c1cc(C2CC2)c(OCCC2CCN(Cc3cc(Cl)cc(Cl)c3)CC2)cc1F [Example 304, 5-cyclopropyl-N-(cyclopropylsulfonyl)-4-(2-(1-(3,5-dichlorobenzyl)piperidin-4-yl)ethoxy)-2-fluorobenzamide, trifluoroacetic acid salt]
27 | 3.35 nM | – | CS(=O)(=O)NC(=O)c1cc(C2CC2)c(OCC2CN([C@@H](c3ccccc3)c3ccc(OC(F)(F)F)cc3)C2)cc1F [Example 112, (S)-5-Cyclopropyl-2-fluoro-N-(methylsulfonyl)-4-((1-(phenyl(4-(trifluoromethoxy)phenyl)methyl)azetidin-3-yl)methoxy)benzamide]
28 | 3.3 nM | – | CCS(=O)(=O)NC(=O)c1cc(C2CC2)c(OCC2CCN([C@@H](C)c3ccc(Cl)cc3Cl)CC2)cc1F [Example 285, (S)-5-cyclopropyl-4-((1-(1-(2,4-dichlorophenyl)ethyl)piperidin-4-yl)methoxy)-N-(ethylsulfonyl)-2-fluorobenzamide]
29 | 3.1 nM | – | CS(=O)(=O)NC(=O)c1cc(C2CC2)c(O[C@@H]2CCCN(Cc3ccc(-c4ccccc4)cc3)C2)cc1F [Example 426, (R)-4-((1-([1,1′-biphenyl]-4-ylmethyl)piperidin-3-yl)oxy)-5-cyclopropyl-2-fluoro-N-(methylsulfonyl)benzamide, trifluoroacetic acid salt]
30 | 2.9 nM | – | CC1(COc2cc(F)c(C(=O)NS(C)(=O)=O)cc2C2CC2)CCN(C(c2ccccc2)c2ccccc2)CC1 [Example 574, 4-((1-benzhydryl-4-methylpiperidin-4-yl)methoxy)-5-cyclopropyl-2-fluoro-N-(methylsulfonyl)benzamide]
31 | 1.9 nM | – | C[C@@H]1CC[C@@H](Oc2cc(F)c(C(=O)NS(=O)(=O)N3CCC3)cc2C2CC2)CN1Cc1ccc(F)cc1Cl [Example 322, N-(azetidin-1-ylsulfonyl)-4-(((3R,6R)-1-(2-chloro-4-fluorobenzyl)-6-methylpiperidin-3-yl)oxy)-5-cyclopropyl-2-fluorobenzamide]
32 | 1.9 nM | – | CCS(=O)(=O)NC(=O)c1cc(C2CC2)c(OCC2CCN(C(C)(C)c3cc(Cl)cc(Cl)c3)CC2)cc1F [Example 210, 5-Cyclopropyl-4-((1-(2-(3,5-dichlorophenyl)propan-2-yl)piperidin-4-yl)methoxy)-N-(ethylsulfonyl)-2-fluorobenzamide]
